{"source": "ChEMBL document CHEMBL4000174", "about": "“Synthesis and antitumor activity of novel substituted uracil-1'(N)-acetic acid ester derivatives of 20(S)-camptothecins” (Eur J Med Chem, 2017)", "key": {"[1]": {"tested_on": "BGC-823", "assay": "Antiproliferative activity against human BGC823 cells after 96 hrs by MTT assay", "assay_type": "functional, cell-based", "conditions": "BGC-823, 96 h"}, "[2]": {"tested_on": "A2780", "assay": "Antiproliferative activity against human A2780 cells after 96 hrs by MTT assay", "assay_type": "functional, cell-based", "conditions": "A2780, 96 h"}, "[3]": {"tested_on": "Mus musculus", "assay": "Toxicity in Kunming mouse implanted with mouse H22 cells assessed as body weight at 40 mg/kg, ip administered on day 1 and day 5 (reference value: 32.5 g)", "assay_type": "organism-based", "conditions": "in vivo"}, "[4]": {"tested_on": "H22", "assay": "Antitumor activity against mouse H22 cells implanted in Kunming mouse assessed as tumor growth inhibition at 40 mg/kg, ip administered on day 1 and day 5 relative to control relative to control", "assay_type": "functional", "conditions": "read-out: TGI"}, "[5]": {"tested_on": "H22", "assay": "Antitumor activity against mouse H22 cells implanted in Kunming mouse assessed as tumor growth inhibition at 100 mg/kg, ip administered once relative to control", "assay_type": "functional", "conditions": "read-out: TGI"}, "[6]": {"tested_on": "H22", "assay": "Antitumor activity against mouse H22 cells implanted in Kunming mouse assessed as tumor growth inhibition at 60 mg/kg, ip administered twice relative to control", "assay_type": "functional", "conditions": "read-out: TGI"}, "[7]": {"tested_on": "BGC-823", "assay": "Antitumor activity against human BGC823 cells xenografted in BALB/c nude mouse assessed as tumor growth inhibition at 60 mg/kg, ip administered once in a week for two weeks starting from 6 days post tumor transplantation measured 27 to 30 days post tumor transplantation relative to control", "assay_type": "functional", "conditions": "BGC-823, ip, read-out: TGI"}, "[8]": {"tested_on": "Escherichia coli", "assay": "Inhibition of Escherichia coli topoisomerase 1-mediated relaxation of supercoiled Pcmv-6 plasmid DNA at 30 to 50 uM after 30 mins by ethidium bromide staining based agarose gel electrophoretic analysis"}, "[9]": {"tested_on": "A549", "assay": "Induction of apoptosis in human A549 cells assessed as necrotic cells at 8 nM after 24 hrs by Annexin V-FITC/propidium iodide staining based flow cytometry (reference value: 7.62%)", "assay_type": "functional"}, "[10]": {"tested_on": "A549", "assay": "Induction of apoptosis in human A549 cells assessed as late apoptotic cells at 8 nM after 24 hrs by Annexin V-FITC/propidium iodide staining based flow cytometry (reference value: 2.47%)", "assay_type": "functional"}, "[11]": {"tested_on": "A549", "assay": "Induction of apoptosis in human A549 cells assessed as early apoptotic cells at 8 nM after 24 hrs by Annexin V-FITC/propidium iodide staining based flow cytometry (reference value: 0.50%)", "assay_type": "functional"}, "[12]": {"tested_on": "A549", "assay": "Cell cycle arrest in human A549 cells assessed as accumulation at G2/M phase at 8 nM after 24 hrs by propidium iodide staining based flow cytometry (reference value: 8.36%)", "assay_type": "functional"}, "[13]": {"tested_on": "A549", "assay": "Cell cycle arrest in human A549 cells assessed as accumulation at G0/G1 phase at 25 nM after 24 hrs by propidium iodide staining based flow cytometry (reference value: 58.84%)", "assay_type": "functional"}, "[14]": {"tested_on": "A549", "assay": "Cell cycle arrest in human A549 cells assessed as accumulation at S phase at 25 nM after 24 hrs by propidium iodide staining based flow cytometry (reference value: 32.80%)", "assay_type": "functional"}, "[15]": {"tested_on": "A549", "assay": "Cell cycle arrest in human A549 cells assessed as accumulation at G2/M phase at 25 nM after 24 hrs by propidium iodide staining based flow cytometry (reference value: 8.36%)", "assay_type": "functional"}, "[16]": {"tested_on": "A549", "assay": "Cell cycle arrest in human A549 cells assessed as accumulation at G0/G1 phase at 75 nM after 24 hrs by propidium iodide staining based flow cytometry (reference value: 58.84%)", "assay_type": "functional"}, "[17]": {"tested_on": "A549", "assay": "Cell cycle arrest in human A549 cells assessed as accumulation at S phase at 75 nM after 24 hrs by propidium iodide staining based flow cytometry (reference value: 32.80%)", "assay_type": "functional"}, "[18]": {"tested_on": "A549", "assay": "Induction of apoptosis in human A549 cells assessed as viable cells at 75 nM after 24 hrs by Annexin V-FITC/propidium iodide staining based flow cytometry (reference value: 89.41%)", "assay_type": "functional", "conditions": "A549, 24 h, read-out: Activity"}, "[19]": {"tested_on": "A549", "assay": "Induction of apoptosis in human A549 cells assessed as necrotic cells at 75 nM after 24 hrs by Annexin V-FITC/propidium iodide staining based flow cytometry (reference value: 7.62%)", "assay_type": "functional"}, "[20]": {"tested_on": "A549", "assay": "Induction of apoptosis in human A549 cells assessed as viable cells at 25 nM after 24 hrs by Annexin V-FITC/propidium iodide staining based flow cytometry (reference value: 89.41%)", "assay_type": "functional", "conditions": "A549, 24 h, read-out: Activity"}, "[21]": {"tested_on": "A549", "assay": "Induction of apoptosis in human A549 cells assessed as early apoptotic cells at 25 nM after 24 hrs by Annexin V-FITC/propidium iodide staining based flow cytometry (reference value: 0.50%)", "assay_type": "functional"}, "[22]": {"tested_on": "A549", "assay": "Induction of apoptosis in human A549 cells assessed as necrotic cells at 25 nM after 24 hrs by Annexin V-FITC/propidium iodide staining based flow cytometry (reference value: 7.62%)", "assay_type": "functional"}, "[23]": {"tested_on": "A549", "assay": "Induction of apoptosis in human A549 cells assessed as membrane blebbing after 24 hrs by phase contrast microscopy", "assay_type": "functional, cell-based"}, "[24]": {"tested_on": "A549", "assay": "Induction of apoptosis in human A549 cells assessed as decrease in Bcl-2 protein level at 8 to 75 nM by Western blot method", "assay_type": "functional, cell-based"}, "[25]": {"tested_on": "A549", "assay": "Induction of apoptosis in human A549 cells assessed as increase in Bax protein level at 8 to 75 nM by Western blot method", "assay_type": "functional, cell-based"}, "[26]": {"tested_on": "Mus musculus", "assay": "Toxicity in BALB/c nude mouse xenografted with human Bel7402 cells assessed as body weight at 60 mg/kg, ip aadministered once in a week for two weeks starting from 6 days post tumor transplantation measured every 3 days for 21 days (reference value: 14.5 g)", "assay_type": "organism-based", "conditions": "in vivo, 504 h"}, "[27]": {"tested_on": "Bel-7402", "assay": "Antitumor activity against human Bel7402 cells xenografted in BALB/c nude mouse assessed as tumor growth inhibition at 30 mg/kg, ip administered once in a week for two weeks starting from 6 days post tumor transplantation measured 27 to 30 days post tumor transplantation relative to control", "assay_type": "functional", "conditions": "Bel-7402, ip, read-out: TGI"}, "[28]": {"tested_on": "Mus musculus", "assay": "Toxicity in Kunming mouse implanted with mouse H22 cells assessed as body weight at 100 mg/kg, ip administered once (reference value: 31.1 g)", "assay_type": "organism-based", "conditions": "in vivo"}, "[29]": {"tested_on": "Mus musculus", "assay": "Toxicity in Kunming mouse implanted with mouse H22 cells assessed as body weight at 60 mg/kg, ip administered twice (reference value: 31.1 g)", "assay_type": "organism-based", "conditions": "in vivo"}, "[30]": {"tested_on": "Mus musculus", "assay": "Toxicity in BALB/c nude mouse xenografted with human Bel7402 cells assessed as survival at 60 mg/kg, ip administered once in a week for two weeks starting from 6 days post tumor transplantation measured every 3 days for 21 days", "assay_type": "organism-based", "conditions": "in vivo, 504 h"}, "[31]": {"tested_on": "Mus musculus", "assay": "Toxicity in BALB/c nude mouse xenografted with human BGC823 cells assessed as mouse survival at 30 mg/kg, ip administered once in a week for two weeks starting from 6 days post tumor transplantation", "assay_type": "organism-based", "conditions": "in vivo, 144 h"}, "[32]": {"tested_on": "Mus musculus", "assay": "Antitumor activity in BALB/c nude mouse xenografted with human Bel7402 cells assessed as tumor volume at 60 mg/kg, ip administered once in a week for two weeks starting from 6 days post tumor transplantation measured every 3 days for 21 days (reference value: […])", "conditions": "in vivo, 504 h"}, "[33]": {"tested_on": "Mus musculus", "assay": "Antitumor activity in BALB/c nude mouse xenografted with human Bel7402 cells assessed as tumor volume at 30 mg/kg, ip administered once in a week for two weeks starting from 6 days post tumor transplantation measured every 3 days for 21 days (reference value: 511 mm3)", "conditions": "in vivo, 504 h"}}, "note": "Active and inactive are the calls of the source. The rule behind the calls is not given here."}
{"molecule": "CCc1c2c(nc3ccccc13)-c1cc3c(c(=O)n1C2)COC(=O)[C@@]3(CC)OC(=O)Cn1cc(F)c(=O)[nH]c1=O", "values": [{"measurement": "IC50", "setting": "[1]", "result": 32, "unit": "nM"}, {"measurement": "IC50", "setting": "[2]", "result": 147, "unit": "nM"}, {"measurement": "Activity", "setting": "[3]", "result": 27.3, "unit": "g"}, {"measurement": "inhibition in vivo at 40 mg/kg", "setting": "[4]", "result": 57.5, "unit": "%"}, {"measurement": "inhibition in vivo at 100 mg/kg", "setting": "[5]", "result": 39.1, "unit": "%"}, {"measurement": "inhibition in vivo at 60 mg/kg", "setting": "[6]", "result": 64.5, "unit": "%"}, {"measurement": "inhibition in vivo at 60 mg/kg", "setting": "[7]", "result": 96, "unit": "%"}, {"measurement": "inhibition", "setting": "[8]", "result": "Active"}, {"measurement": "Activity", "setting": "[9]", "result": 3.74, "unit": "%"}, {"measurement": "Activity", "setting": "[10]", "result": 13.06, "unit": "%"}, {"measurement": "Activity", "setting": "[11]", "result": 3, "unit": "%"}, {"measurement": "Activity", "setting": "[12]", "result": 31.21, "unit": "%"}, {"measurement": "Activity", "setting": "[13]", "result": 7.09, "unit": "%"}, {"measurement": "Activity", "setting": "[14]", "result": 21.17, "unit": "%"}, {"measurement": "Activity", "setting": "[15]", "result": 71.74, "unit": "%"}, {"measurement": "Activity", "setting": "[16]", "result": 2.17, "unit": "%"}, {"measurement": "Activity", "setting": "[17]", "result": 30.76, "unit": "%"}, {"measurement": "viability at 0.075 µM", "setting": "[18]", "result": 30.6, "unit": "%"}, {"measurement": "Activity", "setting": "[19]", "result": 10.77, "unit": "%"}, {"measurement": "viability at 0.025 µM", "setting": "[20]", "result": 53.4, "unit": "%"}, {"measurement": "Activity", "setting": "[21]", "result": 10.07, "unit": "%"}, {"measurement": "Activity", "setting": "[22]", "result": 9.9, "unit": "%"}, {"measurement": "Activity", "setting": "[23]", "result": "Dose-dependent effect"}, {"measurement": "Activity", "setting": "[24]", "result": "Active"}, {"measurement": "Activity", "setting": "[25]", "result": "Active"}, {"measurement": "Activity", "setting": "[26]", "result": "Non-Toxic"}, {"measurement": "inhibition in vivo at 30 mg/kg", "setting": "[27]", "result": 62.6, "unit": "%"}, {"measurement": "Activity", "setting": "[28]", "result": 29.8, "unit": "g"}, {"measurement": "Activity", "setting": "[29]", "result": 27.2, "unit": "g"}, {"measurement": "Activity", "setting": "[30]", "result": "Non-Toxic"}, {"measurement": "Activity", "setting": "[31]", "result": "Non-Toxic"}, {"measurement": "tumor volume", "setting": "[32]", "result": 127, "unit": "mm³"}, {"measurement": "tumor volume", "setting": "[33]", "result": 231, "unit": "mm³"}]}
